Read-outs that look alike come from different tables or passages of the source.
Experiments:
[1] = target: T1, yeast proteasome yβ1 subunit (Saccharomyces cerevisiae, UniProt P25043+P38624); experiment: Subunit selectivity, purified yeast proteasome yβ1; type: biochemical; settings: 8 μg/mL purified yCP; ± SD; read-out: yβ1 IC50
T1 construct: measured using 8 μg/mL of purified yCP or iCP
Procedure: (§1) The compounds were diluted with lysis buffer; 10 μL of the compound-containing solution was added to the test wells at ten times the final concentration. […] The results are reported as the average of at least 3 technical replicates of IC50 values for proteasome inhibition.
(§2) Values and standard deviations were calculated from an assay performed in biological triplicate.

[2] = system: MDA-MB-231 cells; experiment: MTT assay cytotoxicity MDA-MB-231
[3] = system: cancer cells (MCF7, MDA-MB-231, RPMI 8226); experiment: MTT cytotoxicity, cell line not given
[4] = system: RPMI 8226 cells; experiment: MTT assay cytotoxicity RPMI 8226
[5] = target: T2, yeast proteasome yβ2 subunit (Saccharomyces cerevisiae, UniProt P25043+P25451); experiment: Subunit selectivity, purified yeast proteasome yβ2; type: biochemical; settings: 8 μg/mL purified yCP; ± SD; read-out: yβ2 IC50
T2 construct: measured using 8 μg/mL of purified yCP or iCP
Procedure: as §1, §2

[6] = target: T3, immunoproteasome iβ5 subunit (Homo sapiens, UniProt P20618+P28062); experiment: Subunit selectivity, purified immunoproteasome iβ5; type: biochemical; settings: 8 μg/mL purified iCP; ± SD; read-out: iβ5 IC50
T3 construct: purchased Enzo Life Sciences
Procedure: as §1, §2

[7] = target: T4, chymotrypsin-like activity of the 26S proteasome (Homo sapiens, UniProt P28074); experiment: Proteasome assay, chymotrypsin-like (ChT-L) activity, Suc-LLVY-AMC, Jurkat cell lysate; type: biochemical; settings: ± S.D.
T4 construct: endogenous in cells; host or cells: Jurkat (ATCC TIB-152, E6-1 clone) cell lysate
T4 sequence (P28074 60-263): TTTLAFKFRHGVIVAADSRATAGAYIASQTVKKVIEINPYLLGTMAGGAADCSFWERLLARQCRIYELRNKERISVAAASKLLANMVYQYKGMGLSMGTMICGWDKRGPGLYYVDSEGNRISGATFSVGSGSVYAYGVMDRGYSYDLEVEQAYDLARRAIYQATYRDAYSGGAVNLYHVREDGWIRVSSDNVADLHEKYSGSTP
Procedure: The lysate was stored at −80° C. until the sample was used for the proteasome assay.
as §1

[8] = target: T5, yeast proteasome yβ5 subunit (Saccharomyces cerevisiae, UniProt P23724+P30656); experiment: Subunit selectivity, purified yeast proteasome yβ5; type: biochemical; settings: 8 μg/mL purified yCP; ± SD; read-out: yβ5 IC50
T5 construct: measured using 8 μg/mL of purified yCP or iCP
Procedure: as §1, §2

[9] = system: MCF7 cells; experiment: MTT assay cytotoxicity MCF7
Procedure: The cells were incubated at 37° C. in a humidified atmosphere with 5% CO2.
100 μL of cells were added to each well of a 96 well microtiter plate at a concentration of 4×10^4 cells/mL and incubated overnight to allow proper adhesion. (RPMI 8226 cells were plated at 4×10^5 cells/mL). The cells were treated with the panel of test compounds at a series of concentrations, along with vehicle control DMSO and untreated cells as controls. After 48 h incubation, 20 μL of MTT reagent (3-(4,5-dimethylthiazol-2-yl)-2,5-diphenyltetrazolium bromide) in PBS (5 mg/mL) was added to each well of the plates. The plate was incubated for 2 h at 37° C. For adherent cell lines, the media was removed from each well of the plate and the resulting formazan crystals dissolved in 100 μL of DMSO. For RPMI 8226 cells, 200 ul of DMF/SDS mix (50% DMF. 10% w/v SDS pH<4) was used to solubilize the formazan crystals. Optical density (OD) at 490 nm was measured using a microplate reader. Cells treated with 1 μM phenyl arsine oxide (PAO) served as a positive cell-killing control. Technical replicates of these assays were performed in biological quadruplicate, and the three best values were used for analysis in order to eliminate outliers. Data presented are the average IC50 value calculated from at least 3 technical replicates with the corresponding standard deviation.

[10] = system: MCF-7 breast cancer cell line; experiment: Drug deactivation by serum: cytotoxicity towards MCF-7 in FBS, NBS or human serum; type: cell-based; settings: MCF-7 cytotoxicity
Procedure: The deactivation of compounds was evaluated by testing the toxicity of compounds 8 and 12a in three different types of serums (i.e., fetal bovine serum (FBS), newborn bovine serum (NBS), and human serum). FBS is taken during the development of a calf fetus, so the serum has less protein associated with the innate immune system, and less protein altogether compared to NBS and human serum. […] The structural optimization of compound 12a improved the serum stability of the drug: P3 was changed from isopropyl to CH2OBn, and P4 was changed from OBn to NHBn. The OBn group of P4 was more sensitive to deactivation than NHBn.
The MCF-7 cells were cultured in three different types of serum. Assays were performed in biological triplicate, and the data points are reported with the corresponding standard deviation.

[11] = target: T6, β5 subunit of the 26S yeast proteasome (yCP) (Saccharomyces cerevisiae, UniProt P23724+P30656); experiment: Protein-drug co-crystal structure; type: binding; settings: X-ray crystallography
T6 construct: measured using 8 μg/mL of purified yCP or iCP
Procedure: The binding mode of compound 11a in the yeast proteasome was examined. The yeast proteasome (yCP) has high homology with mammalian proteasomes but is easier to crystallize. Compound 11a was incubated at a high concentration with active yCP, and the enzyme-inhibitor complex was analyzed using X-ray crystallography.
Compound 11a is positioned in a kinked β-sheet-like conformation that is stabilized by hydrogen bonding with Thr21 and Gly47. The PI is further stabilized by the hydrophobic interaction of P3, whereas P2 and P4 lack any direct interactions within the binding pocket. The PI prevents the regeneration of the Thr1 catalytic site by complexing the water molecule generated by the hydrolysis of the β-lactone. The water molecule is stabilized in the binding pocket by residues Thr1, Ser131, and the hydroxyl group of the hydrolyzed lactone. […] The biological effects of P2 and P4 can be attributed to the pharmacokinetics of the cystargolide scaffold instead of binding to the β5 subunit of the proteasome.

IC50 ([7]; Table 5, read-out: Proteasome Inhib. ChT-L IC50) | SMILES | IC50 [1] | IC50 ([2]; Homo sapiens, MDA-MB-231, read-out: Cytotoxicity MDA-MB-231 IC50) | times less cytotoxic than carfilzomib [3] | IC50 ([4]; Homo sapiens, RPMI-8226, read-out: Cytotoxicity RPMI 8226 IC50) | IC50 [5] | IC50 [6] | IC50 [8] | IC50 ([9]; Homo sapiens, MCF7, read-out: Cytotoxicity MCF7 IC50) | fold decrease in activity with NBS or human serum instead of FBS [10] | IC50 ([2]; read-out: Cytotoxicity MDA-MB-231 IC50, Table 4, MTT, 48 h) | IC50 ([4]; read-out: Cytotoxicity RPMI 8226 IC50, Table 4, MTT, 48 h) | IC50 ([7]; Table 4, P4 analogues, read-out: Proteasome Inhibition ChT-like IC50) | IC50 ([9]; read-out: Cytotoxicity MCF7 IC50, Table 4, MTT, 48 h) | binding mode in the crystal structure [11]
0.000647 ± 2.1e-05 µM | CC[C@H](C)[C@@H]1C(=O)O[C@H]1C(=O)N[C@H](C(=O)N[C@@H](COCc1ccccc1)C(=O)NCc1ccccc1)C(C)C [Compound 12a] | 20.4 ± 12.9 µM | 0.0563 ± 0.00309 µM | about 10 times | 0.0288 ± 0.00109 µM | 13.6 ± 5.49 µM | 0.033 ± 0.0134 µM | 0.0082 ± 0.0014 µM | 0.0939 ± 0.00294 µM | < 10 fold | – | – | – | – | –
– | C=CCOC(=O)[C@@H](NC(=O)[C@@H](NC(=O)[C@@H]1OC(=O)[C@H]1[C@@H](C)CC)C(C)C)C(C)C [Compound 11a, Allyl((2R,3S)-3-((S)-sec-butyl)-4-oxooxetane-2-carbonyl)-L-valyl-L-valinate] | 0.779 ± 0.042 µM | – | – | – | > 10 µM | 0.0412 ± 0.0152 µM | 0.0195 ± 0.0008 µM | – | – | 0.275 ± 0.112 µM | 0.094 ± 0.015 µM | 0.0116 ± 0.0028 µM | 0.311 ± 0.082 µM | binds covalently to Thr1Oγ at the active site of subunit β5 of the yCP
